Where “and” joins values, the source holds several entries; their conditions need not be identical. Equal values may be shown once.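 Each compound was tested at five concentrations against cells in 96-well plates for 48 hours. At the GI50, growth is halved. TGI: concentration producing complete growth inhibition.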

Among the test systems are UACC-257 melanoma; NCI-H226 lung; RPMI-8226 leukemia; HCT-116 colon; K-562 leukemia; SK-MEL-5 melanoma; HCT-15 colon; A549 NSCLC; A498 renal.
Common to all, as to test: NCI-60 cell line screen, 48 h

On to `CCCCCC(O)C(O)CCC[C@H](O)[C@H]1CC[C@H]([C@H]2CC[C@H]([C@H](O)CCCCCCCCCCCCC3=C[C@H](C)OC3=O)O2)O1` (stereo not given in full), for which the GI50 was 1.29 µM with UACC-257 melanoma; 5.25 µM with NCI-H226 lung; 0.0933 µM with HCT-116 colon; 5.48 µM with HCT-15 colon; 3.48 µM with A549 NSCLC. Further, the TGI in the assay with UACC-257 melanoma is 8.7 µM and 18.6 µM; with NCI-H226 lung, 35.9 µM; with RPMI-8226 leukemia, 4.51 µM; in the assay on HCT-116 colon it was 38.7 µM; in the assay with K-562 leukemia it was 6.4 µM; in the assay with SK-MEL-5 melanoma it was 3.82 µM and 3.07 µM. For the same compound, the values for the TGI in the assay on HCT-15 colon and in the assay on A549 NSCLC were 40.6 µM and greater than 100 µM, respectively.
For the compound `Cc1ccc(N=C[N-]c2ccc(C)cc2)cc1.Cc1ccc(N=C[N-]c2ccc(C)cc2)cc1.O=C([O-])C(F)(F)F.O=C([O-])C(F)(F)F.[OH3+].[OH3+].[Rh+2].[Rh+2]`, the GI50 is 64.7 µM with UACC-257 melanoma; 89.6 µM in the assay on NCI-H226 lung; 18.9 µM in the assay with RPMI-8226 leukemia; 16.7 µM in the assay with HCT-116 colon; 25.4 µM with K-562 leukemia; 30.7 µM in the assay with SK-MEL-5 melanoma. The GI50 in the assay with HCT-15 colon is 46.1 µM; in the assay with A549 NSCLC it was greater than 100 µM. Also, the TGI in the assay on UACC-257 melanoma was greater than 100 µM; with NCI-H226 lung, greater than 100 µM; with RPMI-8226 leukemia, 40.6 µM; in the assay on HCT-116 colon it was 35.4 µM; in the assay with K-562 leukemia, 67.1 µM; in the assay with SK-MEL-5 melanoma it was greater than 100 µM. Further, the TGI in the assay with HCT-15 colon and in the assay on A549 NSCLC was greater than 100 µM in each case.
With `Clc1ccc(-c2c3ccc(=[N+]4CCCCC4)cc-3oc3cc(N4CCCCC4)ccc23)cc1`, the GI50 in the assay with A498 renal was 0.035 µM; in the assay with UACC-257 melanoma, 0.13 µM; in the assay with K-562 leukemia, 0.153 µM; with SK-MEL-5 melanoma it was 0.156 µM. In addition, the TGI came to 0.15 µM in the assay on A498 renal, 0.304 µM in the assay with UACC-257 melanoma, 0.779 µM in the assay on K-562 leukemia and 0.291 µM in the assay with SK-MEL-5 melanoma.
For `C1CCCCc2nc3c(nc2CCC1)c1nc2c(nc1c1nc4c(nc31)CCCCCCCC4)CCCCCCCC2`, the TGI in the assay on A498 renal, in the assay with UACC-257 melanoma, in the assay on HCT-116 colon, with K-562 leukemia, in the assay on HCT-15 colon and with A549 NSCLC was greater than 100 µM throughout.
In the case of `Cc1c(C(=O)O)n(C)c(=O)n(C)c1=O`, the TGI in the assay on A498 renal, with UACC-257 melanoma, with NCI-H226 lung, in the assay on HCT-116 colon, with K-562 leukemia and with SK-MEL-5 melanoma was greater than 100 µM each time. Also, the TGI with HCT-15 colon and in the assay with A549 NSCLC was greater than 100 µM each time.
Turning to `CCCCCCCC1(c2ccc(N)cc2)CCC(=O)NC1=O` (stereo not given), the TGI is greater than 100 µM with UACC-257 melanoma; 40.8 µM with RPMI-8226 leukemia; greater than 100 µM in the assay with K-562 leukemia; 49.6 µM in the assay on SK-MEL-5 melanoma; greater than 100 µM in the assay with HCT-15 colon; greater than 100 µM in the assay on A549 NSCLC.
For `Cc1ccc(C)c(N2C(=O)C(=O)C(c3nc4ccccc4o3)C(=O)C2=O)c1`, the TGI was greater than 100 µM in the assay with A498 renal; greater than 100 µM in the assay with UACC-257 melanoma; greater than 100 µM in the assay on NCI-H226 lung; 90.5 µM in the assay with HCT-116 colon; greater than 100 µM in the assay with SK-MEL-5 melanoma; greater than 100 µM in the assay on HCT-15 colon. In the assay on A549 NSCLC, the TGI is greater than 100 µM.
Turning to `Cc1ccc2nc(NC(=O)C(=O)C(C#N)c3ccc(Cl)cc3)sc2c1` (stereo not given), the TGI in the assay on UACC-257 melanoma, in the assay on NCI-H226 lung, in the assay on RPMI-8226 leukemia, in the assay with HCT-116 colon, in the assay on HCT-15 colon and with A549 NSCLC was greater than 50 µM in each case.
As for `CCC[CH2][Sn]([CH2]CCC)([S]C#N)[S]C#N`, the GI50 with UACC-257 melanoma was 0.965 µM; with NCI-H226 lung it was 1.77 µM; with RPMI-8226 leukemia, 0.229 µM; with HCT-116 colon, 1.45 µM; in the assay with K-562 leukemia, 0.215 µM; with SK-MEL-5 melanoma it was 0.483 µM. Moreover, the GI50 is 1.18 µM with HCT-15 colon and 3.78 µM with A549 NSCLC. The TGI worked out at 2.4 µM in the assay with UACC-257 melanoma; 3.25 µM in the assay on NCI-H226 lung; 1.34 µM in the assay on RPMI-8226 leukemia; 3.11 µM in the assay with HCT-116 colon; 1.35 µM with K-562 leukemia; 1.76 µM with SK-MEL-5 melanoma. Also, the TGI came to 2.53 µM with HCT-15 colon and 11.9 µM with A549 NSCLC.
`N#CC(C(=O)CCCC(=O)Nc1ccc(Cl)cc1Cl)c1ccccc1` (stereo not given): the TGI in the assay with UACC-257 melanoma, in the assay on NCI-H226 lung, in the assay on HCT-116 colon, in the assay on K-562 leukemia, in the assay on SK-MEL-5 melanoma and in the assay on HCT-15 colon was greater than 100 µM each time. The compound also showed a TGI with A549 NSCLC greater than 100 µM.
`CCOC(=O)c1cc(-c2ccc(-c3cc(C(=O)OCC)c(C#N)c(N)c3C#N)cc2)c(C#N)c(N)c1C#N`: the TGI in the assay on UACC-257 melanoma, in the assay on NCI-H226 lung, with RPMI-8226 leukemia, with HCT-116 colon, in the assay on K-562 leukemia and in the assay with HCT-15 colon was greater than 100 µM in each case. The TGI with A549 NSCLC is greater than 100 µM.

For the origin of these results see PubChem BioAssay (NCI).
